Data published in patent US20070243598A1, “NOVEL PSEUDONOCARDIA SP. RMRC PAH4 AND A PROCESS FOR BIOCONVERTING COMPACTIN INTO PRAVASTATIN USING THE SAME” (CHINESE PETROLEUM CORPORATION, priority 2004, published 2007).

Tested on: Pseudonocardia sp. RMRC PAH4
Assay: Tolerance of Pseudonocardia sp. RMRC PAH4 against compactin sodium
Assay type: cell-based
Conditions: added after 48 hours on shaker in YMG liquid medium, 220 rpm, 28° C.; conversion rate could not exceed 30%
Protocol: The strain was inoculated in the culture medium consisting of casein hydrolysate 0.05-0.2%; yeast extract 0.05-0.2%; soluble starch 0.5-2.0%; KH2PO4 0.01-0.08%; MgSO4.7H2O 0.05-0.2%; Pravastatin sodium 0.005-0.01%; and Bacto agar 2.0%, pH 7.0, and incubated under 28° C. for 7-20 days.
The above inoculum culture was incubated in compactin sodium-containing YMG liquid medium consisting of yeast extract 0.1-1.0%; malto extract 0.1-1.0%; peptone 0.1-1.0%; glucose 0.5-2.0%; cotton seed extract (Pharmamedia) 0.5-0.5%; KH2PO4 0.1-0.5%; Na2HPO4 0.3-0.7%; MgSO4.7H2O 0.01-0.05%; FeSO4.7H2O 0.001-0.01%; MnSO4.H2O 0.001-0.01%; CaCl2 0.001-0.01%; compactin sodium 0.002-0.01%; pH 6.5, on a shaker, at 220 rpm, under 28° C.
After incubating on shaker as described above for 48 hours, 300-3,000 μg/ml of compactin sodium as added and continued the incubation under same conditions. Utilization rate of compactin sodium and conversion rate of Pravastatin sodium were analyzed by HPLC at an interval of 24 hours.

CC[C@H](C)C(=O)O[C@H]1CCC=C2C=C[C@H](C)[C@H](CCCC[C@@H](O)CC(=O)O)[C@H]21 [compactin sodium]
amount of compactin sodium added above which growth of the bacteria becomes considerably slow: more than 2,500 μg/ml
